One experiment relates to U937 cells. Briefly: U937 Cell TNFα Release Assay. Particulars: mixture of stereoisomers implied unless otherwise noted. Type of experiment: cell-based, human.
The next experiment deals with MK-2 (Homo sapiens, UniProt P49137). Briefly: Determination of MK-2 IC50 (phosphorylation of HSP-peptide, anion exchange resin capture assay). Particulars: additional values are replicate IC50 experiments; mixture of stereoisomers implied unless otherwise noted; read-out: MK-2 Avg. IC50. The format is biochemical.
The subject of experiment [1] is p38. Particulars: murine model of endotoxin-induced shock; cited from earlier work.
Experiment [2] deals with p38. Particulars: rat adjuvant arthritis; cited from earlier work.
Experiment [3] has as its system p38. Particulars: mouse collagen-induced arthritis; cited from earlier work.
The mark [4] stands for this setting: Homo sapiens, U-937, 4 h, LPS-stimulated differentiated U937 cells, TNFα by ELISA, read-out: TNF Release Assay Avg. IC50.
The mark [5] stands for this setting: Homo sapiens, U-937, LPS-stimulated differentiated U937 cells, TNFα by ELISA, read-out: TNF Release Assay Avg. IC50.
[6] abbreviates: Homo sapiens, U-937, 4 h, read-out: TNF Release Assay Avg. IC50, LPS-stimulated differentiated U937 cells, TNFα by ELISA.

Structures can show the parent of a compound that is named as a salt. Where two headings read alike, the source gives them in different places.

As usually defined, the IC50 is the concentration needed to halve the response being measured.

MK-2, sequence (P49137 whole entry, species assumed): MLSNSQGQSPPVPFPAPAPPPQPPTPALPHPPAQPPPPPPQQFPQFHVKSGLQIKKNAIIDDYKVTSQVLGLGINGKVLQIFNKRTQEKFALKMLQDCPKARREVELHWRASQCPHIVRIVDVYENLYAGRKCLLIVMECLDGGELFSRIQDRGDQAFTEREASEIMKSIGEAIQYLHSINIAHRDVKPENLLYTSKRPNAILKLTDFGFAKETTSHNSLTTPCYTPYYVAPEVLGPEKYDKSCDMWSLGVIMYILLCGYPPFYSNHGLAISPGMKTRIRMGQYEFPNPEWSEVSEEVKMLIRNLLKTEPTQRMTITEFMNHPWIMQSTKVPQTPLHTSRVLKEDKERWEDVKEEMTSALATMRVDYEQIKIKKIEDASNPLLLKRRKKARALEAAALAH

As to `COC(=O)COc1ccc2[nH]c3c(c2c1)CCNC3C(=O)O` (stereo not drawn) [Example 70, 6-(2-methoxy-2-oxoethoxy)-2,3,4,9-tetrahydro-1H-beta-carboline-1-carboxylic acid trifluoroacetate hydrate], the IC50 with U937 cells (setting [4]) is more than 100 µM; on MK-2, 15.3 µM.
For the compound `O=C(O)C1NCCc2c1[nH]c1ccc(OCCCCCl)cc21` (stereo not drawn) [Example 79, 6-(4-chlorobutoxy)-2,3,4,9-tetrahydro-1H-beta-carboline-1-carboxylic acid hydrochloride], the IC50 with U937 cells (setting [4]) was more than 100 µM; at MK-2 it was 17.4 µM.
With `O=C(O)C1NCCc2c1[nH]c1ccc(OCCCCl)cc21` (stereo not drawn) [Example 76, 6-(3-chloropropoxy)-2,3,4,9-tetrahydro-1H-beta-carboline-1-carboxylic acid hydrochloride], the IC50 with U937 cells (setting [4]) is more than 100 µM; at MK-2, 16.7 µM.
Regarding `COc1ccc2[nH]c3c(c2c1)C(C(F)(F)F)CNC3C(=O)O` (stereo not drawn) [Example 66, 6-methoxy-4-(trifluoromethyl)-2,3,4,9-tetrahydro-1H-beta-carboline-1-carboxylic acid], the IC50 in the experiment on U937 cells (setting [4]) came out at 41.3 µM; on MK-2, 13.8 µM.
Turning to `COc1ccc2[nH]c3c(=O)n(/N=C/c4ccccc4)c(=O)[nH]c3c2c1` [Example 265, 8-methoxy-3-{[(1E)-phenylmethylidene]amino}-1H-pyrimido[5,4-b]indole-2,4(3H,5H)-dione], the IC50 with U937 cells (setting [5]) was more than 100 µM; on MK-2, more than 200 µM.
For the compound `COC(=O)C1NCCc2c1[nH]c1ccc(OCc3ccccc3)cc21` (stereo not drawn) [Example 175, methyl 6-(benzyloxy)-2,3,4,9-tetrahydro-1H-beta-carboline-1-carboxylate hydrochloride], the half-inhibitory concentration (IC50) with U937 cells (setting [6]) was 26.5 µM; on MK-2 it was more than 200 µM.
With `COC(=O)c1cccc2c3c([nH]c12)CCNC3=O` [Example 29, methyl 1-oxo-2,3,4,5-tetrahydro-1H-pyrido[4,3-b]indole-6-carboxylate], the IC50 in the experiment on U937 cells (setting [4]) is 42.4 µM; at MK-2 it was 3.52 µM.
In the case of `COc1ccc2[nH]c3c(c2c1)C(C)(C)CNC3C(=O)O` (stereo not drawn) [Example 73, 6-methoxy-4,4-dimethyl-2,3,4,9-tetrahydro-1H-beta-carboline-1-carboxylic acid], the values for the IC50 with U937 cells (setting [4]) and on MK-2 were more than 100 µM and 15.8 µM, respectively.
As for `COc1ccc2[nH]c3c(c2c1)CC(CCCNCCc1ccccc1)NC3=O` (centres unmarked) [Example 18, trifluoroacetate], the IC50 stood at 23.7 µM in the experiment with U937 cells (Homo sapiens, U-937, read-out: TNF Release Assay Avg. IC50, LPS-stimulated differentiated U937 cells, TNFα by ELISA) and 2.03 µM on MK-2.
Regarding `COc1ccc2[nH]c3c(c2c1)CCC/C3=N/O` [Example 25, (1Z)-6-methoxy-2,3,4,9-tetrahydro-1H-carbazol-1-one oxime], the IC50 in the experiment with U937 cells (setting [5]) was determined as 2.18 µM; on MK-2, 3.1 µM.
Take `COc1ccc2c3c([nH]c2c1)C(C(=O)O)NCC3` (stereo not drawn) [Example 34, 7-methoxy-2,3,4,9-tetrahydro-1H-beta-carboline-1-carboxylic acid]: the IC50 is more than 100 µM with U937 cells (setting [4]) and 4.52 µM on MK-2.
As for `COc1ccc2[nH]c3c(c2c1)CC(CCCNCc1ccccc1)NC3=O` (stereo not drawn) [Example 62, 3-[3-(benzylamino)propyl]-6-methoxy-2,3,4,9-tetrahydro-1H-beta-carbolin-1-one trifluoroacetate], the IC50 in the experiment with U937 cells (setting [5]) was 24.9 µM; on MK-2, 10.5 µM.
With `CCCC1CNC(C(=O)OC)c2[nH]c3ccc(OC)cc3c21` (stereo not drawn) [Example 188, methyl 6-methoxy-4-propyl-2,3,4,9-tetrahydro-1H-beta-carboline-1-carboxylate], the IC50 was 13.3 µM in the experiment with U937 cells (setting [4]) and more than 200 µM on MK-2.
Turning to `O=C(O)C1NCCc2c1[nH]c1ccc(OCc3ccncc3)cc21` (stereo not drawn) [Example 85, 6-(pyridin-4-ylmethoxy)-2,3,4,9-tetrahydro-1H-beta-carboline-1-carboxylic acid hydrochloride], the half-inhibitory concentration (IC50) in the experiment with U937 cells (setting [4]) stood at 48.4 µM; at MK-2 it was 25.8 µM.
In the case of `COc1ccc2[nH]c3c(c2c1)CCC/C3=N\O` (single isomer, unassigned) [Example 75, 6-methoxy-2,3,4,9-tetrahydro-1H-carbazol-1-one oxime], the IC50 stood at 13.9 µM in the experiment with U937 cells (setting [5]) and 16.5 µM on MK-2.
As for `O=C(O)C1NCCc2c1[nH]c1ccc(Br)cc21` (stereo not drawn) [Example 89, 6-bromo-2,3,4,9-tetrahydro-1H-beta-carboline-1-carboxylic acid compound with ethanol(1:1) hydrochloride], the results for the concentration for half-maximal inhibition (IC50) with U937 cells (setting [6]) and at MK-2 were more than 100 µM and 28.2 µM, respectively.
With `COc1ccc2[nH]c3c(c2c1)CCNC3=O` [Example 69, 6-methoxy-2,3,4,9-tetrahydro-1H-beta-carbolin-1-one], the results for the IC50 in the experiment with U937 cells (setting [5]) and at MK-2 were 45.7 µM and 15 µM, respectively.
Turning to `COc1ccc2[nH]c3c(c2c1)CC(C)(C)NC3C(=O)O` (stereo not drawn) [Example 54, 6-methoxy-3,3-dimethyl-2,3,4,9-tetrahydro-1H-beta-carboline-1-carboxylic acid], the IC50 is more than 100 µM in the experiment with U937 cells (setting [4]) and 8.39 µM on MK-2.
As to `CCCC1CNC(C(=O)O)c2[nH]c3ccc(OC)cc3c21` (stereo not drawn) [Example 55, 6-methoxy-4-propyl-2,3,4,9-tetrahydro-1H-beta-carboline-1-carboxylic acid], the results for the IC50 with U937 cells (setting [6]) and at MK-2 were more than 100 µM and 8.47 µM, respectively.
In the case of `COC(=O)C1NCC(C)c2c1[nH]c1ccc(OC)cc21` (stereo not drawn) [Example 189, methyl 6-methoxy-4-methyl-2,3,4,9-tetrahydro-1H-beta-carboline-1-carboxylate], the results for the IC50 with U937 cells (setting [4]) and on MK-2 were 53.2 µM and more than 200 µM, respectively.
Consider `CN(C)C(=O)COc1ccc2[nH]c3c(c2c1)CCNC3C(=O)O` (stereo not drawn) [Example 86, 6-[2-(dimethylamino)-2-oxoethoxy]-2,3,4,9-tetrahydro-1H-beta-carboline-1-carboxylic acid hydrochloride], for which the IC50 in the experiment with U937 cells (setting [4]) was more than 100 µM; at MK-2, 27.7 µM.
For `COc1ccc2[nH]c3c(c2c1)CCN(C)C3C(N)=O` (stereo not drawn) [Example 170, 6-methoxy-2-methyl-2,3,4,9-tetrahydro-1H-beta-carboline-1-carboxamide], the IC50 in the experiment with U937 cells (setting [6]) was more than 100 µM; on MK-2, more than 200 µM.
As to `CCCCOc1ccc2[nH]c3c(c2c1)CCNC3C(=O)O` (stereo not drawn) [Example 60, 6-butoxy-2,3,4,9-tetrahydro-1H-beta-carboline-1-carboxylic acid], the results for the IC50 with U937 cells (setting [4]) and on MK-2 were more than 100 µM and 10.1 µM, respectively.
On to `COc1ccc2[nH]c3c(c2c1)CCC(C)/C3=N/N` (centres unmarked) [Example 134, 6-methoxy-2-methyl-2,3,4,9-tetrahydro-1H-carbazol-1-one hydrazone], for which the IC50 in the experiment on U937 cells (setting [5]) is 7.33 µM; on MK-2, 108 µM.
With `C[S+]([O-])c1ccc(-c2nc(-c3ccncc3)c(-c3ccc(F)cc3)[nH]2)cc1` (centres unmarked) [SB203580], the mortality entry with p38 [1] is reported as “reduce mortality”. Moreover, the development of arthritis result in the experiment on p38 [2] and in the experiment with p38 [3] was “inhibit the development” each time.
On to `O=C(O)C1NCCc2c1[nH]c1ccc(OCc3ccccc3Cl)cc21` (stereo not drawn) [Example 72, 6-[(2-chlorobenzyl)oxy]-2,3,4,9-tetrahydro-1H-beta-carboline-1-carboxylic acid trifluoroacetate], for which the values for the IC50 with U937 cells (setting [4]) and at MK-2 were 7.68 µM and 15.5 µM, respectively.
As to `COc1ccc2[nH]c3c(c2c1)CCC(C)/C3=N/O` (centres unmarked) [Example 78, 6-methoxy-2-methyl-2,3,4,9-tetrahydro-1H-carbazol-1-one oxime], the figures for the IC50 with U937 cells (setting [5]) and on MK-2 were 1.59 µM and 17 µM, respectively.
The matching figures for `COc1ccc2[nH]c3c(c2c1)CCCCC3=NO` [Example 49]: 2.89 µM and 6.9 µM.
`CC(=O)Oc1ccc2[nH]c3c(c2c1)CCNC3C(=O)O` (stereo not drawn) [Example 156, 6-(acetyloxy)-2,3,4,9-tetrahydro-1H-beta-carboline-1-carboxylic acid trifluoroacetate]: the IC50 in the experiment with U937 cells (setting [4]) worked out at 100 µM; in the experiment with U937 cells (setting [5]) it was 100 µM; at MK-2, 167 µM.
For the compound `COc1ccc2[nH]c3c(c2c1)CC(CCCNCCCc1ccccc1)NC3=O` (stereo not drawn) [Example 27, 6-methoxy-3-{3-[(3-phenylpropyl)amino]propyl}-2,3,4,9-tetrahydro-1H-beta-carbolin-1-one trifluoroacetate], the half-maximal inhibitory concentration (IC50) in the experiment with U937 cells (setting [5]) came to 8.54 µM; at MK-2, 3.24 µM.
In the case of `COc1ccc2[nH]c3c(c2c1)CC(CCCN)NC3=O` (stereo not drawn) [Example 38, 3-(3-aminopropyl)-6-methoxy-2,3,4,9-tetrahydro-1H-beta-carbolin-1-one trifluoroacetate], the IC50 in the experiment with U937 cells (setting [5]) stood at 36.7 µM; on MK-2, 5.5 µM.
Take `O=C(O)C1NCCc2c1[nH]c1ccc(OCc3cccc(Cl)c3)cc21` (stereo not drawn) [Example 80, 6-[(3-chlorobenzyl)oxy]-2,3,4,9-tetrahydro-1H-beta-carboline-1-carboxylic acid]: the half-maximal inhibitory concentration (IC50) in the experiment with U937 cells (setting [4]) was found to be 17.8 µM; on MK-2 it was 17.9 µM.
Regarding `COC(=O)C1c2[nH]c3ccc(O)cc3c2CCN1C` (stereo not drawn) [Example 129, methyl 6-hydroxy-2-methyl-2,3,4,9-tetrahydro-1H-beta-carboline-1-carboxylate], the IC50 worked out at 0.523 µM in the experiment on U937 cells (read-out: TNF Release Assay Avg. IC50, LPS-stimulated differentiated U937 cells, TNFα by ELISA) and 98.7 µM on MK-2.

The record behind these values is patent US20050137220A1 (Pharmacia Corporation, priority 2003, published 2005).
